Results on nine molecules are retold here after patent publication US5932577A, “Substituted oxobutyric acids as matrix metalloprotease inhibitors” (Bayer Corporation, priority 1997, dated 1999).

Molecules are shown by their SMILES.

Experiment [1] addresses T1, Recombinant Human CHO Stromelysin (MMP-3) (Homo sapiens, UniProt P08254).
T1 construct: made in house; host or cells: CHO (Chinese hamster ovary) cells
In words: P218 quenched fluorescence assay (Microfluorometric Profiling Assay), MMP-3. The format is biochemical. The note with it: for IC50: 6 μM P218, pH 6.5, 25 min at 37° C., read-out: MMP-3 Fluorogenic IC50; for inhibition at 5 µM: read-out: MMP-3 Fluorogenic, I = % inhibition. The text has this: (§1) P218 Quenched Fluorescence Assay for MMP Inhibition:
(§2) The P218 quenched fluorescence assay (Microfluorometric Profiling Assay) is a modification of that originally described by Knight, et al., FEBS Lett. 296 263, 1992 for a related substance and a variety of matrix metalloproteinases (MMPs) in cuvettes. The assay was run with each invention compound and the three MMPs, MMP-3, MMP-9 and MMP-2, analyzed in parallel, adapted as follows for a 96-well microtiter plate and a Hamilton AT® workstation.
(§3) P218 Fluorogenic Substrate:
(§4) P218 is a synthetic substrate containing a 4-acetyl-7-methoxycoumarin (MCA) group in the N-terminal position and a 3-[2,4-dinitrophenyl]-L-2,3-diaminopropionyl (DPA) group internally. This is a modification of a peptide reported by Knight (1992) that was used as a substrate for matrix metalloproteinases. Once the P218 peptide is cleaved (putative clip site at the Ala-Leu bond), the fluorescence of the MCA group can be detected on a fluorometer with excitation at 328 nm and emission at 393 nm. P218 is currently being produced BACHEM exclusively for Bayer. P218 has the structure:
(§5) H-MCA-Pro-Lys-Pro-Leu-Ala-Leu-DPA-Ala-Arg-NH2 (MW 1332.2)
Recombinant Human CHO Stromelysin (MMP-3)
Recombinant Human CHO Pro-MMP-3: Human CHO pro-stromelysin-257 (pro-MMP-3) was expressed and purified as described by Housley, et al., J. Biol. Chem. 268, 4481 (1993).
Activation of Pro-MMP-3: Pro-MMP-3 at 1.72 μM (100 μg/mL) in 5 mM Tris at pH 7.5, 5 mM CaCl2, 25 mM NaCl, and 0.005% Brij-35 MMP-3) activation buffer) was activated by incubation with TPCK (N-tosyl-(L)-phenylalanine chloromethyl ketone) trypsin (1: 100 w/w to pro-MMP-3) at 25° C. for 30 min. The reaction was stopped by addition of soybean trypsin inhibitor (SBTI; 5:1 w/w to trypsin concentration). This activation protocol results in the formation of 45 kDa active MMP-3, which still contains the C-terminal portion of the enzyme.
(§6) Hamiltion Microlab AT Plus: The MMP-Profiling Assay is performed robotically on a Hamilton MicroLab AT Plus®. The Hamilton is programmed to: (1) serially dilute up to 11 potential inhibitors automatically from a 2.5 mM stock in 100% DMSO; (2) distribute substrate followed by inhibitor into a 96 well Cytofluor plate; and (3) add a single enzyme to the plate with mixing to start the reaction. Subsequent plates for each additional enzyme are prepared automatically by beginning the program at the substrate addition point, remixing the diluted inhibitors and beginning the reaction by addition of enzyme. In this way, all MMP assays were done using the same inhibitor dilutions.
(§7) Millipore Cytofluor II. Following incubation, the plate was read on a Cytofluor II fluorometric plate reader with excitation at 340 nm and emission at 395 nm with the gain set at 80.
(§8) Microfluorometric Reaction Buffer (MRB): Dilution of test compounds, enzymes, and P218 substrate for the microfluorometric assay were made in microfluorometric reaction buffer consisting of 50 mM 2-(N-morpholino)ethanesulfonic acid (MES) at pH 6.5 with 10 mM CaCl2, 150 mM NaCl, 0.005% Brij-35 and 1% DMSO.
(§9) MMP Microfluorometric Profiling Assay. The assay is done with a final substrate concentration of 6 μM P218 and approximately 0.5 to 0.8 nM MMP with variable drug concentrations. The Hamilton is programmed to serially dilute up to 11 compounds from a 2.5 mM stock (100% DMSO) to 10× the final compounds concentrations in the assay. Initially, the instrument delivers various amounts of microfluoromentric reaction buffer (MRB) to a 96 tube rack of 1 ml Marsh dilution tubes. The instrument then picks up 20 μl of inhibitor (2.5 mM) from the sample rack and mixes it with a buffer in row A of the Marsh rack, resulting in a 50 μM drug concentration. The inhibitors are then serially diluted to 10, 5, 1, 0.2, 0.05 and 0.01 μM. […]

The target in experiment [2] is T2, Human Recombinant Gelatinase A (MMP-2) (Homo sapiens, UniProt P08253).
T2 sequence (P08253 110-660): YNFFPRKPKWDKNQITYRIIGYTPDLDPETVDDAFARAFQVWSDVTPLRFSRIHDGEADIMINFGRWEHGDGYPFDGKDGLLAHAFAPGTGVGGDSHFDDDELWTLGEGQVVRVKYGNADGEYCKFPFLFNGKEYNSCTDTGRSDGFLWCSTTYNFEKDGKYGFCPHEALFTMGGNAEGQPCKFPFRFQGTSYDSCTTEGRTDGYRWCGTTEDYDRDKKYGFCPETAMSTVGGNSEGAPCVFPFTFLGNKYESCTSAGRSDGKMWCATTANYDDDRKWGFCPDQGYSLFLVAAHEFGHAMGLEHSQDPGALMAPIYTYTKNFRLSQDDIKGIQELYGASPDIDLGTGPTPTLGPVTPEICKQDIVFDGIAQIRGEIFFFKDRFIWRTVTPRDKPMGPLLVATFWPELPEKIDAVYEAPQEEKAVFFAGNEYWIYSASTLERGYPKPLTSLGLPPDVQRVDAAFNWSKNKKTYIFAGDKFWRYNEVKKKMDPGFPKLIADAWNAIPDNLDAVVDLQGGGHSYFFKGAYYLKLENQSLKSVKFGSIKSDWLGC
In words: P218 quenched fluorescence assay (Microfluorometric Profiling Assay), MMP-2. The note with it: for IC50: 6 μM P218, pH 6.5, 25 min at 37° C., read-out: MMP-2 Fluorogenic IC50; for inhibition at 5 µM: read-out: MMP-2 Fluorogenic, I = % inhibition. The format is biochemical.

The target in experiment [3] is T3, Human Recombinant Gelatinase B (MMP-9) (Homo sapiens, UniProt P14780).
T3 construct: made in house
T3 sequence (P14780 107-707 limits assumed): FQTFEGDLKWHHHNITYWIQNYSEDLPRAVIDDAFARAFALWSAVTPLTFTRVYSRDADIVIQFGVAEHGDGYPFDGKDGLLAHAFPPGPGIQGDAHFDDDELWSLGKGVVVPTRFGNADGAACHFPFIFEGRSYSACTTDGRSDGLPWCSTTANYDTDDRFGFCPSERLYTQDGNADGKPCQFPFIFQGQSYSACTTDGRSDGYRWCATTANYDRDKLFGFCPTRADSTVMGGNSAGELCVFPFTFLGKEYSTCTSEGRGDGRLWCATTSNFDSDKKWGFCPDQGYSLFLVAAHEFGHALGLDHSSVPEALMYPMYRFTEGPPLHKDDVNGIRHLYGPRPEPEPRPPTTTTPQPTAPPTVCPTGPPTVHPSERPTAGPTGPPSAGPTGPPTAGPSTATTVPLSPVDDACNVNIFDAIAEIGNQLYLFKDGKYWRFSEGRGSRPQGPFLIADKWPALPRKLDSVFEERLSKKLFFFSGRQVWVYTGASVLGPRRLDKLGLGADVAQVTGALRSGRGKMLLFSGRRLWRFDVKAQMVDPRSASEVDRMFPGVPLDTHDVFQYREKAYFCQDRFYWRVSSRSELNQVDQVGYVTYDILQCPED
In words: P218 quenched fluorescence assay (Microfluorometric Profiling Assay), MMP-9. The format is biochemical. Particulars: 6 μM P218, pH 6.5, 25 min at 37° C.; read-out: MMP-9 Fluorogenic IC50.
Text: as §1, §2, §3, §4, §5
Preparation of Human Recombinant Pro-Gelatinase B (MMP-9):
Recombinant Human Pro-MMP-9: Human pro-gelatinase B (pro-MMP-9) derived from U937 cDNA as described by Wilhelm, et al. J. Biol. Chem. 264, 17213 (1989) was expressed as the full-length form using a baculovirus protein expression system. The pro-enzyme was purified using methods previously described by Hibbs, et al. J. Biol. Chem. 260, 2493 (1984).
Activation of Pro-MMP-9: […] 20 μg/mL in 50 mM Tris at pH 7.4, 10 mM CaCl2, 150 mM NaCl, and 0.005% Brij-35 (MMP-9 activation buffer) was activated by incubation with 0.5 mM p-aminophenylmercuric acetate (APMA) for 3.5 h at 37° C. The enzyme was dialyzed against the same buffer to revmove the APMA.
as §6, §7, §8, §9

The next experiment has as its system human colon tumor. The note with it: given intraperitoneally, orthotopic model, nude mice; cited from earlier work.
The test system of experiment [4] is human ovarian carcinoma xenografts. The note with it: cited from earlier work.

T1 sequence (P08254 100-477): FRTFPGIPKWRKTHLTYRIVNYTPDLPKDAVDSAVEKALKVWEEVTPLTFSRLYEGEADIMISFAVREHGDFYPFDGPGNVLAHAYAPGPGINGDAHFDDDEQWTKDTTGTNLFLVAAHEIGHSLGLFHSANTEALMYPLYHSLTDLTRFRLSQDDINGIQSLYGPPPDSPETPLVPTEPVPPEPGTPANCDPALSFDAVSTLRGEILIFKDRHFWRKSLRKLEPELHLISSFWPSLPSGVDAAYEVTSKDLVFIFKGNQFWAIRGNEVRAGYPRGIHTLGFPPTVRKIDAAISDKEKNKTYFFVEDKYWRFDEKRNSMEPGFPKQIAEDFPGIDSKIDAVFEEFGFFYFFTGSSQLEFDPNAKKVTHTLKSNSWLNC

Take `CCCCCCCCCCC(=O)CC(CCN1C(=O)c2ccccc2C1=O)C(=O)O` (stereo not drawn) [I, 1,3-dihydro-1,3-dioxo-α-(2-oxododecyl)-2H-isoindole-2-butanoic acid]: the values for the IC50 in experiment [1], in experiment [2] and in experiment [3] were 4.8 µM, 1.3 µM and 0.12 µM, respectively.
For the molecule `CCCCCCCCCC(=O)CC(CCN1C(=O)c2ccccc2C1=O)C(=O)O` (stereo not drawn) [II, 1,3-dihydro-1,3-dioxo-α-(2-oxoundecyl)-2H-isoindole-2-butanoic acid], the IC50 – broadly, the concentration at which inhibition is half-maximal – in experiment [1] worked out at 5 µM; in experiment [2], 1.85 µM; in experiment [3], 0.24 µM.
The matching figures for `CCCCCCCCCCCC(=O)CC(CCN1C(=O)c2ccccc2C1=O)C(=O)O` (stereo not drawn) [III, 1,3-dihydro-1,3-dioxo-α-(2-oxotidecyl)-2H-isoindole-2-butanoic acid]: 2.95 µM, 0.75 µM and 0.091 µM.
The matching figures for `CCCCCCCCCCCCC(=O)CC(CCN1C(=O)c2ccccc2C1=O)C(=O)O` (stereo not drawn) [IV, 1,3-dihydro-1,3-dioxo-α-(2-oxotetradecyl)-2H-isoindole-2-butanoicacid]: 2.38 µM, 0.515 µM and 0.155 µM.
As to `COc1ccc(CC(=O)CC(CCc2ccccc2)C(=O)O)cc1` (stereo not drawn) [IX], the inhibition (commonly the percentage by which the read-out fell short of the control) at 5 µM in experiment [1] amounted to 9%; in experiment [2], 18%.
Regarding `CCCCCCCCCCCCCC(=O)CC(CCN1C(=O)c2ccccc2C1=O)C(=O)O` (stereo not drawn) [V, 1,3-dihydro-1,3-dioxo-α-(2-oxopentadecyl)-2H-isoindole-2-butanoic acid], the IC50 in experiment [1] came out at 3.38 µM; in experiment [2], 1.1 µM; in experiment [3], 0.15 µM.
As to `CCCCCCCCCCCCCCC(=O)CC(CCN1C(=O)c2ccccc2C1=O)C(=O)O` (stereo not drawn) [VI, 1,3-dihydro-1,3-dioxo-α-(2-oxohexadecyl)-2H-isoindole-2-butanoic acid], the inhibition at 5 µM in experiment [1] was found to be 45%. For the same molecule, the IC50 in experiment [2] was found to be 1.02 µM; in experiment [3], 0.235 µM.
For the molecule `COc1ccc(CCCC(=O)CC(CCc2ccccc2)C(=O)O)cc1` (stereo not drawn) [VII], the inhibition at 5 µM is 3% in experiment [1] and 18% in experiment [2].
Regarding `CNC(=O)[C@H](Cc1ccccc1)NC(=O)[C@H](CC(C)C)[C@H](CSc1cccs1)C(=O)NO` [batimastat], in the experiment with human colon tumor, the “inhibition of human colon tumor growth and spread” value is “inhibits human colon tumor growth and spread”. In addition, the “survival of mice bearing human ovarian carcinoma xenografts” value in experiment [4] is listed as “prolongs the survival”.
